From the NIST ThermoML archive (doi:10.1016/j.jct.2007.05.010)
Numbers after ± are expanded uncertainties.

Columns and labels:
[1] = 298.15 K, 101 kPa, Liquid; for speed of sound: Sing-around technique in a fixed-path interferometer
[2] = mn = molality of the nth substance listed, in mol/kg; details: 298.15 K, 101 kPa, Liquid; for speed of sound: Sing-around technique in a fixed-path interferometer

OCCO [1,2-ethanediol]
[1]
Details | mass density [kg/m3] | speed of sound [m/s]
– | 1109.41 ± 0.69 | 1656.1 ± 1.7

OCCO [1,2-ethanediol] + O
[2]
Details | mass density [kg/m3] | speed of sound [m/s]
m2 = 0 | 1109.41 ± 0.69 | 1656.1 ± 1.7
m2 = 0.1028 | 1109.35 ± 0.69 | 1656.9 ± 1.7
m2 = 0.2175 | 1109.25 ± 0.69 | 1657.7 ± 1.7
m2 = 0.3155 | 1109.22 ± 0.69 | 1658.6 ± 1.7
m2 = 0.3759 | 1109.06 ± 0.69 | 1658.7 ± 1.7
m2 = 0.7031 | 1108.82 ± 0.68 | 1660.5 ± 1.7
m2 = 0.808 | 1108.62 ± 0.68 | 1661.4 ± 1.7
m2 = 0.9282 | 1108.2 ± 0.68 | 1661.8 ± 1.7
m2 = 1.035 | 1108.14 ± 0.68 | 1662.3 ± 1.7
m2 = 1.132 | 1108.1 ± 0.68 | 1662.7 ± 1.7

CC(O)CO (stereo not given) [1,2-propanediol]
[1]
Details | mass density [kg/m3] | speed of sound [m/s]
– | 1032.87 ± 0.23 | 1510.6 ± 1.4

CC(O)CO (stereo not given) [1,2-propanediol] + O
[2]
Details | mass density [kg/m3] | speed of sound [m/s]
m2 = 0 | 1032.87 ± 0.23 | 1510.6 ± 1.4
m2 = 0.2187 | 1033.12 ± 0.23 | 1512.9 ± 1.4
m2 = 0.5592 | 1033.53 ± 0.24 | 1516.4 ± 1.4
m2 = 0.6141 | 1033.58 ± 0.24 | 1516.5 ± 1.4
m2 = 0.7341 | 1033.67 ± 0.24 | 1517.5 ± 1.4
m2 = 0.8421 | 1033.73 ± 0.24 | 1519.4 ± 1.4
m2 = 0.9215 | 1033.86 ± 0.24 | 1519.9 ± 1.4
m2 = 1.023 | 1033.94 ± 0.24 | 1521.5 ± 1.4

CC1COC(=O)O1 (stereo not given) [4-methyl-1,3-dioxolan-2-one]
[1]
Details | mass density [kg/m3] | speed of sound [m/s]
– | 1198.64 ± 0.94 | 1443.4 ± 1.6

CC1COC(=O)O1 (stereo not given) [4-methyl-1,3-dioxolan-2-one] + O
[2]
Details | mass density [kg/m3] | speed of sound [m/s]
m2 = 0 | 1198.64 ± 0.94 | 1443.4 ± 1.6
m2 = 0.2538 | 1197.46 ± 0.93 | 1444.9 ± 1.6
m2 = 0.2969 | 1197.24 ± 0.93 | 1445.2 ± 1.6
m2 = 0.3438 | 1196.97 ± 0.93 | 1445.4 ± 1.6
m2 = 0.3895 | 1196.74 ± 0.93 | 1445.6 ± 1.6
m2 = 0.4879 | 1196.22 ± 0.93 | 1446 ± 1.6
m2 = 0.5765 | 1195.77 ± 0.93 | 1446.6 ± 1.6
m2 = 0.6743 | 1195.27 ± 0.93 | 1447.2 ± 1.6
m2 = 0.7678 | 1194.8 ± 0.92 | 1447.6 ± 1.6
